In patent USRE38460E1 (priority 1994, dated 2004):
pIC50: −log10 of the molar value. Like-named read-outs stand apart in the source and are kept apart here.

Columns and labels:
[1] = molecular target: T1, acetylcholinesterase (AChE) (Rattus norvegicus, UniProt P37136); assay: biochemical; format: biochemical
T1 construct: from tissue; host or cells: rat red cell membrane
Procedure: (§1) In the present invention a calorimetric method reported by Ellman was used to determine the effect of inhibition of the pharmaceutical on enzyme activity. The total volume of the solution of the enzyme activity reaction was 4 ml, which contained 0.3 mmol/L of acetylcholin iodide (acetylcholinesterase substrate), or 0.4 mmol/L of butyrylcholin iodide (butyrylcholinesterase substrate), 1 ml of the buffer solution of 25 mmol/L of phosphate of pH 7.4, and water to make up to 4 ml (including the amount of the enzyme solution and the testing reagent added afterwards). After the solution was kept at 37° C. for 5 minutes, 0.1-0.2 ml of enzyme solution (red cell membrane or serum of rat) was added, or 0.1-0.3 ml of the testing reagent was added at the same time. The solution was kept at the same temperature for another 8 minutes. Then 1 ml of 3% of sodium lauryl sulphate was added to terminate the reaction. Finally 1 ml of 0.2% 5,5-dithio-2,2′-nitro-benzoic acid solution was added for developing.
(§2) AChE taken from rat's red cell membrane. BuChE taken from rat's serum.
T1 sequence (P37136 other isoform, or with tags, fused parts or gaps): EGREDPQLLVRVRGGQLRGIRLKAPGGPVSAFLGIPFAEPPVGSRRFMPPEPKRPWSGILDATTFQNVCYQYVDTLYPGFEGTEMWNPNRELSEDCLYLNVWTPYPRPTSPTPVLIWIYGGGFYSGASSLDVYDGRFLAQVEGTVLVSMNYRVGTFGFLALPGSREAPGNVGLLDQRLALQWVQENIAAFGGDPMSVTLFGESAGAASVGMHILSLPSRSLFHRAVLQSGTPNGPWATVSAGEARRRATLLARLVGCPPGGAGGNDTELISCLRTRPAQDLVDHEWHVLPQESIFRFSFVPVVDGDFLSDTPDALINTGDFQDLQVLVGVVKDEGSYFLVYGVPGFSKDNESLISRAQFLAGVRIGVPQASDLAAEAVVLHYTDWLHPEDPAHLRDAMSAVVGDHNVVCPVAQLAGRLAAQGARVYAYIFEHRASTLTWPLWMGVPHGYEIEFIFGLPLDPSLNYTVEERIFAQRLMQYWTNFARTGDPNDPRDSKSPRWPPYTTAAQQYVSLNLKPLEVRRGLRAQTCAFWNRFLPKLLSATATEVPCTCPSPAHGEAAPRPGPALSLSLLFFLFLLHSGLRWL

[2] = molecular target: T2, butyrylcholinesterase (BuChE) (Rattus norvegicus, UniProt Q9JKC1); assay: In-vitro anticholinesterase effect, colorimetric method (Ellman), BuChE from rat's serum; format: biochemical
T2 construct: from tissue; host or cells: rat serum
T2 sequence (Q9JKC1 24-597): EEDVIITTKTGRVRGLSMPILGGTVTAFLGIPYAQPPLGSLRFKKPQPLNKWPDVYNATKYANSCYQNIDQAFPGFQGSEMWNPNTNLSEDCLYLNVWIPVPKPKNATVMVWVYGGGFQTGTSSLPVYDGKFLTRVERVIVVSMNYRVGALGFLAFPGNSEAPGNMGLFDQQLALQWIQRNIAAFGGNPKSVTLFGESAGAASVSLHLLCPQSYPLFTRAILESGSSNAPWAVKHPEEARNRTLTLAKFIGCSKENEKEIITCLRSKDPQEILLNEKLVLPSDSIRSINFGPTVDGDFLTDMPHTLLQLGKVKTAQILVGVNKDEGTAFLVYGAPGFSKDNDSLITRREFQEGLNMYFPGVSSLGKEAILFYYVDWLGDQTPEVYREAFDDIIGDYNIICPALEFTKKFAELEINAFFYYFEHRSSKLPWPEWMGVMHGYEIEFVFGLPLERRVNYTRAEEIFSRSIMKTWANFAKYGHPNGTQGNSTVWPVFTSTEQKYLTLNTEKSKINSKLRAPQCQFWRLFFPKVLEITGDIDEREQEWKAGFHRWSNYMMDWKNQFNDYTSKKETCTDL
Procedure: as §1, §2
(§3) AChE taken from homogenate of rat's cortex. BuChE taken from rat's serum.

[3] = molecular target: T3, AChE (Rattus norvegicus, UniProt P37136); assay: biochemical
T3 construct: 0.1-0.2 ml of enzyme solution (red cell membrane or serum of rat) was added; from tissue; host or cells: rat tissue
T3 sequence (P37136 32-614): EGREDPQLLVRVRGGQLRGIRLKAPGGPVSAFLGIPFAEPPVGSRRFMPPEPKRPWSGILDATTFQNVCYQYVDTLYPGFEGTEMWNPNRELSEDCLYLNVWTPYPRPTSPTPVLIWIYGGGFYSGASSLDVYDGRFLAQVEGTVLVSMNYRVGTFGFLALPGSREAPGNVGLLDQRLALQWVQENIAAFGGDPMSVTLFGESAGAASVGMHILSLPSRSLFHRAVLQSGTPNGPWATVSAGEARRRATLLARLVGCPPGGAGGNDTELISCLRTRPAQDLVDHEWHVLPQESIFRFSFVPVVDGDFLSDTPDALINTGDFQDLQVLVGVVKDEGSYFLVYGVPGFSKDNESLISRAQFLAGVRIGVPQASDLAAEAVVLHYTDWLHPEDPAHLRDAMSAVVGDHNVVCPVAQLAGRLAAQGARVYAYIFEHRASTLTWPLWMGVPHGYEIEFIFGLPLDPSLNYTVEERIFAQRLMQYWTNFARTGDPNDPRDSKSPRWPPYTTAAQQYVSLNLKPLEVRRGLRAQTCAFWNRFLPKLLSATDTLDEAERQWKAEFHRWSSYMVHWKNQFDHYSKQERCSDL
Procedure: as §1

[4] = molecular target: T4, BuChE (Rattus norvegicus, UniProt Q9JKC1); assay: In-vitro anticholinesterase effect (Table 6), BuChE; format: biochemical; settings: for inhibition at 10 µM: read-out: inhibition activity BuChE at 10(μM); for inhibition activity BuChE at 10(μM): Table 6
T4 construct: from tissue; host or cells: rat serum
T4 sequence (Q9JKC1 24-597): as the sequence (Q9JKC1 24-597) above
Procedure: as §1

[5] = molecular target: T5, acetylcholinesterase (AChE) (Rattus norvegicus, UniProt P37136); assay: biochemical; format: biochemical; settings: for IC50 ratio BuChE/AChE: cortex AChE, serum BuChE
T5 construct: from tissue; host or cells: homogenate of rat cortex
T5 sequence (P37136 32-614): T3 sequence (P37136 32-614)
Procedure: as §1, §3

[6] = system: memory impairment caused by scopolamine; assay: 8-arm maze spatial distinction operation of rat, memory impairment caused by scopolamine; format: in vivo; settings: rats, 8-arm maze; scopolamine + huperzine A 0.15 + 0.25 mg/kg ip + po
[7] = Critical toxicity on mice (Bliss method); format: in vivo; settings: mouse, in vivo, po, mice, p.o., Bliss method, mortality within 7 days
Procedure: Test of each pharmaceutical was carried out using 4-5 dosage group.
Mortality within 7 days was observed.

[8] = read-out: concentration for inhibition of 50% of enzyme activity (IC50) acetylcholinesterase (AChE)
[9] = read-out: concentration for inhibition of 50% of enzyme activity (IC50) butyrylcholinesterase (BuChE), Table 1, BuChE taken from rat's serum
[10] = Table 6, read-out: inhibition activity AChE IC50
[11] = read-out: inhibition activity AChE IC50
[12] = read-out: concentration for inhibition of 50% of enzyme activity (IC50) butyrylcholinesterase (BuChE), Table 2, BuChE taken from rat's serum
[13] = read-out: concentration for inhibition of 50% of enzyme activity (IC50) acetylcholinesterase (AChE), Table 2, AChE taken from homogenate of rat's cortex
[14] = Table 1, AChE taken from rat's red cell membrane
[15] = Table 2, AChE taken from homogenate of rat's cortex

Structure (SMILES): CC=C1C2C=C(C)CC1(NC(=O)c1ccccc1)c1ccc(=O)[nH]c1C2 (stereo not drawn) [derivative No. 11]
- pIC50 [1, 8]: < 4.84
- pIC50 [2, 9]: 3.44

Structure (SMILES): CC=C1C2C=C(C)CC1(N=Cc1cccnc1)c1ccc(=O)[nH]c1C2 (stereo not drawn) [derivative No. 44]
- BuChE/AChE ([3]; Table 6): >500
- inhibition at 1 µM ([3]; Table 6): 85.6%
- pIC50 [3, 10]: 6.96
- inhibition at 10 µM [4]: 1.8%

Structure (SMILES): CC=C1C2C=C(C)CC1(NC(=O)c1ccncc1)c1ccc(=O)[nH]c1C2 (stereo not drawn) [derivative No. 14]
- BuChE/AChE [3]: >100
- inhibition activity AChE at 1(μM) [3]: 76.4
- pIC50 [3, 11]: 6.44
- inhibition activity BuChE at 10(μM) [4]: 2.5

Structure (SMILES): CC=C1C2C=C(C)CC1(NC(=O)c1ccccn1)c1ccc(=O)[nH]c1C2 (stereo not drawn) [derivative No. 12]
- pIC50 [2, 12]: 3.60
- IC50 ratio BuChE/AChE ([5]; Table 2): 1995.2
- pIC50 [5, 13]: 6.90

Structure (SMILES): CC=C1C2C=C(C)CC1(NC(=O)c1cccnc1)c1ccc(=O)[nH]c1C2 (stereo not drawn) [derivative No. 4]
- pIC50 [1, 14]: < 4.89
- pIC50 [2]: 4.23

Structure (SMILES): COc1cc2c(cc1OC)C(=O)C(CC1CCN(Cc3ccccc3)CC1)C2 (stereo not drawn) [E-2020, reference compound]
- inhibition at 10 µM [4]: 2.9%

Structure (SMILES): CC=C1C2C=C(C)CC1(N=CC=Cc1ccccc1)c1ccc(=O)[nH]c1C2 (stereo not drawn) [derivative No. 27]
- pIC50 [2]: 4.00
- pIC50 [5]: 6.90
- IC50 ratio BuChE/AChE ([5]; Table 2): 794.3
- BuChE/AChE ([3]; Table 6): >500
- inhibition at 1 µM ([3]; Table 6): 84%
- pIC50 [3, 10]: 6.96
- inhibition at 10 µM [4]: 3.3%

Structure (SMILES): CC=C1C2C=C(C)CC1(N=Cc1ccc(OC)c(OC)c1O)c1ccc(=O)[nH]c1C2 (stereo not drawn) [derivative No. 22]
- pIC50 [2]: 3.90
- pIC50 [5, 15]: 6.90
- IC50 ratio BuChE/AChE ([5]; Table 2): 1000.0
- inhibition at 1 µM ([3]; Table 6): 68.7%
- inhibition at 10 µM [4]: 0%

Structure (SMILES): CC=C1C2C=C(C)CC1(N=Cc1cc(OC)c(OC)c(OC)c1)c1ccc(=O)[nH]c1C2 (stereo not drawn) [derivative No. 21]
- pIC50 [2]: 3.80
- pIC50 [5, 15]: 6.85
- inhibition at 1 µM ([3]; Table 6): 84.9%
- inhibition at 10 µM [4]: 0%

Structure (SMILES): CC=C1C2C=C(C)CC1(N=Cc1cccc(OC)c1O)c1ccc(=O)[nH]c1C2 (stereo not drawn) [derivative No. 26]
- BuChE/AChE ([3]; Table 6): >300
- inhibition at 1 µM ([3]; Table 6): 79.7%
- pIC50 [3, 10]: 6.74
- inhibition at 10 µM [4]: 1.1%

Structure (SMILES): CC=C1C2C=C(C)CC1(NC(=O)C1=CN(C)CC=C1)c1ccc(=O)[nH]c1C2 (stereo not drawn) [derivative No. 6]
- pIC50 ([1]; read-out: concentration for inhibition of 50% of enzyme activity (IC50) acetylcholinesterase (AChE), Table 1, AChE taken from rat's red cell membrane): < 4.91
- pIC50 [2, 9]: < 3.51

Structure (SMILES): CC=C1C2C=C(C)CC1(N=Cc1ccccc1O)c1ccc(=O)[nH]c1C2 (stereo not drawn) [derivative No. 20]
- pIC50 [2]: 3.90
- pIC50 [5, 15]: 6.75
- IC50 ratio BuChE/AChE ([5]; Table 2): 708.1
- pIC50 [3]: 7.03
- BuChE/AChE ([3]; Table 6): >500
- inhibition at 1 µM ([3]; Table 6): 83.7%
- inhibition at 10 µM [4]: 0%

Structure (SMILES): CC=C1C2C=C(C)CC1(NC(=O)c1cccnc1)c1ccc(=O)n(C(=O)c3cccnc3)c1C2 (stereo not drawn) [derivative No. 5]
- pIC50 [1, 14]: < 4.96
- pIC50 [2]: < 3.56

Structure (SMILES): CC=C1C2C=C(C)CC1(NC(=O)C(C)C)c1ccc(=O)[nH]c1C2 (stereo not drawn) [derivative No. 10]
- pIC50 [1, 8]: < 4.80
- pIC50 [2, 9]: 3.96

Structure (SMILES): CC=C1C2C=C(C)CC1(N=Cc1cccc(O)c1O)c1ccc(=O)[nH]c1C2 (stereo not drawn) [derivative No. 24]
- pIC50 [5, 15]: 7.00
- inhibition at 1 µM ([3]; Table 6): 78.3%
- pIC50 [3, 10]: 6.55
- inhibition at 10 µM [4]: 0%

Structure (SMILES): CC=C1C2C=C(C)CC1(NC(=O)CCC(=O)O)c1ccc(=O)[nH]c1C2 (stereo not drawn) [derivative No. 1]
- IC50 ratio BuChE/AChE [1]: 1092.5
- inhibition effect on acetylcholinesterase (in words) [1]: remarkable inhibition effect
- inhibition effect on acetylcholinesterase compared with huperzine A [1]: slightly weaker
- inhibition effect on acetylcholinesterase compared with physostigmine and galanthamine [1]: apparently stronger
- selective inhibition effect on acetylcholinesterase compared with huperzine A [1]: greater selective inhibition effect
- pIC50 [1, 8]: 6.46
- pIC50 [2, 9]: 3.42
- pIC50 [2, 12]: 3.42
- inhibition effect on butyrylcholinesterase (pseudo enzyme) compared with huperzine A ([2]; see Tables 1, 2 and 6): weaker inhibition effect
- IC50 ratio BuChE/AChE ([5]; Table 2): 1094.1
- pIC50 [5, 13]: 6.46

Structure (SMILES): C/C=C1\C2C=C(C)C[C@]1(N)c1ccc(=O)[nH]c1C2 [huperzine A, (5R, 9R, 11E)-5-amino-11-ethylidene-5,6,9,10-tetrahydro-7-methyl-5,9-methylene cycloocta [b] pyridyl-2(1H)-one, reference compound]
- No. of mistakes in operation before reaching the standard, reference memory (X + SEM) [6]: 0.57
- No. of mistakes in operation before reaching the standard, working memory (X + SEM) [6]: 0.86
- LD50 at 7 days ([7]; first of two columns headed LD50, read-out: LD50 (first column) (95% confidence limit)): 3.1 mg/kg
- LD50 at 7 days ([7]; second of two columns headed LD50, read-out: LD50 (second column) (95% confidence limit)): 4.6 mg/kg

Structure (SMILES): CC=C1C2C=C(C)CC1(NC(=O)Cc1ccccc1)c1ccc(=O)[nH]c1C2 (stereo not drawn) [derivative No. 2]
- pIC50 [1, 14]: 5.04
- pIC50 [2]: < 3.46

Structure (SMILES): CC=C1C2C=C(C)CC1(N=Cc1ccc(O)cc1O)c1ccc(=O)[nH]c1C2 (stereo not drawn) [derivative No. 23]
- pIC50 [2]: 3.70
- pIC50 [5, 15]: 6.60
- IC50 ratio BuChE/AChE ([5]; Table 2): 794.2
- inhibition at 1 µM ([3]; Table 6): 34.4%
- inhibition at 10 µM [4]: 0%

Structure (SMILES): CC=C1C2C=C(C)CC1(N=Cc1ccc(O)c(O)c1O)c1ccc(=O)[nH]c1C2 (stereo not drawn) [derivative No. 25]
- pIC50 [2]: 3.60
- pIC50 [5, 15]: 6.80
- IC50 ratio BuChE/AChE ([5]; Table 2): 1584.9
- inhibition at 1 µM ([3]; Table 6): 62%
- inhibition at 10 µM [4]: 0%

Structure (SMILES): CC=C1C2C=C(C)CC1(NC(=O)c1ccccc1C(=O)O)c1ccc(=O)[nH]c1C2 (stereo not drawn) [derivative No. 15]
- pIC50 [2, 12]: 3.30
- IC50 ratio BuChE/AChE ([5]; Table 2): 795.6
- pIC50 [5, 13]: 6.20
- inhibition activity AChE at 1(μM) [3]: 60.8
- inhibition activity BuChE at 10(μM) [4]: 0

Structure (SMILES): CNC(=O)Oc1ccc2c(c1)[C@]1(C)CCN(C)[C@@H]1N2C [Physostigmine, reference compound]
- pIC50 [2]: 5.90

Structure (SMILES): CC=C1C2C=C(C)CC1(NC(=O)/C=C/CC(=O)O)c1ccc(=O)[nH]c1C2 (stereo not drawn) [derivative No. 16]
- BuChE/AChE [3]: >200
- inhibition activity AChE at 1(μM) [3]: 80.7
- pIC50 [3, 11]: 6.68
- inhibition activity BuChE at 10(μM) [4]: 1.8
